These results are taken from patent US9775797B2, “Personal care composition” (Conopco, Inc., priority 2012, dated 2017).

The subject of the assay is HaCaT and HeMnDP co-culture. As to the kind of experiment: coculture melanin content assay (after Calcein-AM viability check). It is filed as cell-based. The settings on record: melanin content vs control, 72 hrs incubation. Here is the method:
The samples at various concentrations were analysed for skin lightening efficacy using the coculture melanin content assay, the details of which are given below: Set up of Co-cultures: • 1. 4*10^4 HaCaT and 4×10^4 […] (1:1) per well (single wells/treatment) in 12-well Nunc plates on Day 0 are seeded so as to establish a co-culture system. • 2. The volume of media per well should be 1 mL of a 1:1 mix of Melanocyte Growth Media and Keratinocyte Growth Media • 3. 24 hrs later, fresh media containing actives are added. Again 1 mL of a 1:1 mix of MGM and KGM for active addition are used. • 4. Plates are incubated for 72 hrs in a 37° C. CO2 incubator. • 5. […] In the meantime, the fluorescence is measured (excitation at 490 nm and emission at 520 nm) using TECAN instrument after 30 min of dye incubation. • 5. After reading the plate, the buffer containing Calcein is removed and melanin content assay is then carried out. […] After the reading for Calcein-AM is taken, the buffer containing Calcein-AM is removed from all the wells. • 2. […] The absorbance is measured in the Lab-5 Tecan instrument at 405 nm. • 6. For non-cytotoxic concentrations (based on Calcein cut-off of ±15% of control), the average MCA is calculated and reported as MCA as percentage of the control sample. The % inhibition is then calculated. […]

Usually % Inhibition stands for the share of the control response that was lost under treatment. On to `O=C1C[C@@H](c2ccc(O)c(O[C@@H]3O[C@H](CO)[C@@H](O)[C@H](O)[C@H]3O)c2)Oc2cc(O[C@@H]3O[C@H](CO)[C@@H](O)[C@H](O)[C@H]3O)ccc21` [Butrin, butrin], for which the “% Inhibition” value (sample concentration 0.5 ppm) is on record as 31%.
One may read the inhibition as the relative decrease from the control value, in per cent. Regarding `O=c1cc(CO)occ1O` [Example 3, Kojic Acid], for the setting “Homo sapiens, HaCaT, sample concentration 14.2 ppm”, the inhibition at 14.2 ppm is 22%.
